Results as given in ChEMBL document CHEMBL1201862, “PubChem BioAssay data set” (2004).
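Following 48 hours of exposure in 96-well plates, responses at five concentrations were used to interpolate endpoints linearly. GI50 marks 50% less growth.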 Active and inactive are the calls of the source. No stated cut-off is given here; in the data, active = GI50 up to about 1.1 µM and inactive = higher.

Columns and labels:
Assay in all cases: inhibition of tumour cell growth, NCI panel, 48 h
786-0 = test system: 786-0
SF-539 = test system: SF-539
RXF 631 = test system: RXF 631
NCI-H522 = test system: NCI-H522
HOP-92 = test system: HOP-92
HCC 2998 = test system: HCC 2998
HL-60 = test system: HL-60
A549 = test system: A549
OVCAR-5 = test system: OVCAR-5
DLD-1 = test system: DLD-1
RPMI-8226 = test system: RPMI-8226
UACC-257 = test system: UACC-257
SF-268 = test system: SF-268
OVCAR-4 = test system: OVCAR-4
M14 = test system: M14
SK-MEL-2 = test system: SK-MEL-2
COLO 205 = test system: COLO 205
DMS-273 = test system: DMS-273
Malme-3M = test system: Malme-3M
TK-10 = test system: TK-10
EKVX = test system: EKVX
HCT-15 = test system: HCT-15
DMS-114 = test system: DMS-114
KM-20L2 = test system: KM-20L2
HOP-18 = test system: HOP-18
K562 = test system: K562
HT-29 = test system: HT-29
SK-MEL-28 = test system: SK-MEL-28
OVCAR-8 = test system: OVCAR-8
SNB-19 = test system: SNB-19
SF-295 = test system: SF-295
NCI-H23 = test system: NCI-H23
M19-MEL = test system: M19-MEL
SN12C = test system: SN12C
SNB-75 = test system: SNB-75
UO-31 = test system: UO-31
NCI-H460 = test system: NCI-H460
RXF 393 = test system: RXF 393
CCRF-CEM = test system: CCRF-CEM
SW-620 = test system: SW-620
OVCAR-3 = test system: OVCAR-3
HOP-62 = test system: HOP-62
U-251 = test system: U-251
LOX IMVI = test system: LOX IMVI
KM12 = test system: KM12
SK-MEL-5 = test system: SK-MEL-5
ACHN = test system: ACHN
SK-OV-3 = test system: SK-OV-3
IGROV-1 = test system: IGROV-1
LXFL 529 = test system: LXFL 529
MOLT-4 = test system: MOLT-4
UACC-62 = test system: UACC-62
CAKI-1 = test system: CAKI-1
HCT-116 = test system: HCT-116
NCI-H226 = test system: NCI-H226
A498 = test system: A498
SR = test system: SR
SNB-78 = test system: SNB-78
XF498 = test system: XF498

Compound: O=C1C2C(C(=O)N1c1ccccc1)C1(c3ccccc3)OC2(c2ccccc2)c2ccccc21 (stereo unspecified)
- GI50 (786-0): > 100 µM (inactive)
- GI50 (SF-539): > 100 µM (inactive)
- GI50 (RXF 631): > 100 µM (inactive)
- GI50 (NCI-H522): 30.6 µM (inactive)
- GI50 (HOP-92): 1.93 µM (inactive)
- GI50 (HCC 2998): > 100 µM (inactive)
- GI50 (HL-60): > 100 µM (inactive)
- GI50 (A549): > 100 µM (inactive)
- GI50 (OVCAR-5): 4.14 µM (inactive)
- GI50 (DLD-1): > 100 µM (inactive)
- GI50 (RPMI-8226): > 100 µM (inactive)
- GI50 (UACC-257): > 100 µM (inactive)
- GI50 (SF-268): > 100 µM (inactive)
- GI50 (OVCAR-4): > 100 µM (inactive)
- GI50 (M14): > 100 µM (inactive)
- GI50 (SK-MEL-2): > 100 µM (inactive)
- GI50 (COLO 205): > 100 µM (inactive)
- GI50 (DMS-273): > 100 µM (inactive)
- GI50 (Malme-3M): > 100 µM (inactive)
- GI50 (TK-10): > 100 µM (inactive)
- GI50 (EKVX): > 100 µM (inactive)
- GI50 (HCT-15): > 100 µM
- GI50 (DMS-114): > 100 µM (inactive)
- GI50 (KM-20L2): > 100 µM (inactive)
- GI50 (HOP-18): > 100 µM (inactive)
- GI50 (K562): > 100 µM (inactive)
- GI50 (HT-29): > 100 µM (inactive)
- GI50 (SK-MEL-28): > 100 µM (inactive)
- GI50 (OVCAR-8): > 100 µM (inactive)
- GI50 (SNB-19): > 100 µM (inactive)
- GI50 (SF-295): > 100 µM (inactive)
- GI50 (NCI-H23): > 100 µM (inactive)
- GI50 (M19-MEL): > 100 µM (inactive)
- GI50 (SN12C): > 100 µM (inactive)
- GI50 (SNB-75): 12.8 µM (inactive)
- GI50 (UO-31): > 100 µM (inactive)
- GI50 (NCI-H460): > 100 µM (inactive)
- GI50 (RXF 393): > 100 µM (inactive)
- GI50 (CCRF-CEM): > 100 µM (inactive)
- GI50 (SW-620): > 100 µM (inactive)
- GI50 (OVCAR-3): > 100 µM (inactive)
- GI50 (HOP-62): > 100 µM (inactive)
- GI50 (U-251): > 100 µM (inactive)
- GI50 (LOX IMVI): > 100 µM (inactive)
- GI50 (KM12): > 100 µM (inactive)
- GI50 (SK-MEL-5): 2.78 µM (inactive)
- GI50 (ACHN): > 100 µM (inactive)
- GI50 (SK-OV-3): > 100 µM (inactive)
- GI50 (IGROV-1): > 100 µM (inactive)
- GI50 (LXFL 529): > 100 µM (inactive)
- GI50 (MOLT-4): > 100 µM (inactive)
- GI50 (UACC-62): > 100 µM (inactive)
- GI50 (CAKI-1): > 100 µM (inactive)

Compound: CN(C)C(=S)OC(Cn1cncn1)c1ccc(Cl)cc1Cl (stereo unspecified)
- GI50 (786-0): > 100 µM (inactive)
- GI50 (SF-539): > 100 µM (inactive)
- GI50 (HCT-116): > 100 µM (inactive)
- GI50 (RXF 631): > 100 µM (inactive)
- GI50 (NCI-H522): > 100 µM (inactive)
- GI50 (HOP-92): 72.8 µM (inactive)
- GI50 (HCC 2998): > 100 µM (inactive)
- GI50 (HL-60): > 100 µM (inactive)
- GI50 (A549): > 100 µM (inactive)
- GI50 (OVCAR-5): > 100 µM (inactive)
- GI50 (DLD-1): > 100 µM (inactive)
- GI50 (RPMI-8226): > 100 µM (inactive)
- GI50 (UACC-257): > 100 µM (inactive)
- GI50 (SF-268): > 100 µM (inactive)
- GI50 (OVCAR-4): > 100 µM (inactive)
- GI50 (M14): > 100 µM (inactive)
- GI50 (SK-MEL-2): > 100 µM (inactive)
- GI50 (COLO 205): > 100 µM (inactive)
- GI50 (DMS-273): > 100 µM (inactive)
- GI50 (Malme-3M): > 100 µM (inactive)
- GI50 (TK-10): > 100 µM (inactive)
- GI50 (EKVX): > 100 µM (inactive)
- GI50 (HCT-15): > 100 µM
- GI50 (DMS-114): > 100 µM (inactive)
- GI50 (KM-20L2): > 100 µM (inactive)
- GI50 (HOP-18): > 100 µM (inactive)
- GI50 (K562): > 100 µM (inactive)
- GI50 (HT-29): > 100 µM (inactive)
- GI50 (SK-MEL-28): > 100 µM (inactive)
- GI50 (OVCAR-8): > 100 µM (inactive)
- GI50 (SNB-19): > 100 µM (inactive)
- GI50 (SF-295): > 100 µM (inactive)
- GI50 (NCI-H23): > 100 µM (inactive)
- GI50 (NCI-H226): > 100 µM (inactive)
- GI50 (M19-MEL): > 100 µM (inactive)
- GI50 (SN12C): > 100 µM (inactive)
- GI50 (SNB-75): > 100 µM (inactive)
- GI50 (UO-31): > 100 µM (inactive)
- GI50 (NCI-H460): > 100 µM (inactive)
- GI50 (RXF 393): > 100 µM (inactive)
- GI50 (SW-620): > 100 µM (inactive)
- GI50 (A498): > 100 µM (inactive)
- GI50 (OVCAR-3): > 100 µM (inactive)
- GI50 (HOP-62): > 100 µM (inactive)
- GI50 (U-251): > 100 µM (inactive)
- GI50 (LOX IMVI): > 100 µM (inactive)
- GI50 (KM12): > 100 µM (inactive)
- GI50 (SK-MEL-5): 96.4 µM (inactive)
- GI50 (ACHN): > 100 µM (inactive)
- GI50 (SK-OV-3): > 100 µM (inactive)
- GI50 (IGROV-1): > 100 µM (inactive)
- GI50 (LXFL 529): > 100 µM (inactive)
- GI50 (MOLT-4): > 100 µM (inactive)
- GI50 (UACC-62): > 100 µM (inactive)
- GI50 (CAKI-1): > 100 µM (inactive)

Compound: O=S(O)c1cc(Cl)cc(Cl)c1OCc1ccccc1
- GI50 (SF-539): > 100 µM (inactive)
- GI50 (HCT-116): > 100 µM (inactive)
- GI50 (RXF 631): > 100 µM (inactive)
- GI50 (NCI-H522): > 100 µM (inactive)
- GI50 (HCC 2998): > 100 µM (inactive)
- GI50 (HL-60): > 100 µM (inactive)
- GI50 (OVCAR-5): > 100 µM (inactive)
- GI50 (DLD-1): > 100 µM (inactive)
- GI50 (UACC-257): > 100 µM (inactive)
- GI50 (SF-268): > 100 µM (inactive)
- GI50 (OVCAR-4): > 100 µM (inactive)
- GI50 (M14): > 100 µM (inactive)
- GI50 (SK-MEL-2): > 100 µM (inactive)
- GI50 (Malme-3M): > 100 µM (inactive)
- GI50 (TK-10): > 100 µM (inactive)
- GI50 (EKVX): > 100 µM (inactive)
- GI50 (DMS-114): > 100 µM (inactive)
- GI50 (K562): > 100 µM (inactive)
- GI50 (HT-29): > 100 µM (inactive)
- GI50 (SK-MEL-28): > 100 µM (inactive)
- GI50 (SR): > 100 µM (inactive)
- GI50 (SNB-19): > 100 µM (inactive)
- GI50 (NCI-H23): > 100 µM (inactive)
- GI50 (M19-MEL): > 100 µM (inactive)
- GI50 (SN12C): > 100 µM (inactive)
- GI50 (SNB-75): > 100 µM (inactive)
- GI50 (UO-31): > 100 µM (inactive)
- GI50 (NCI-H460): > 100 µM (inactive)
- GI50 (RXF 393): > 100 µM (inactive)
- GI50 (CCRF-CEM): > 100 µM (inactive)
- GI50 (A498): > 100 µM (inactive)
- GI50 (OVCAR-3): > 100 µM (inactive)
- GI50 (HOP-62): > 100 µM (inactive)
- GI50 (U-251): > 100 µM (inactive)
- GI50 (LOX IMVI): > 100 µM (inactive)
- GI50 (KM12): > 100 µM (inactive)
- GI50 (ACHN): > 100 µM (inactive)
- GI50 (SK-OV-3): > 100 µM (inactive)
- GI50 (SNB-78): > 100 µM (inactive)
- GI50 (LXFL 529): > 100 µM (inactive)
- GI50 (MOLT-4): > 100 µM (inactive)
- GI50 (UACC-62): > 100 µM (inactive)
- GI50 (XF498): > 100 µM (inactive)
